Ki data for 1 compound are collected here from BindingDB's records for patent US8987287 (Purdue Pharma, 2015).

pKi: −log10 of the molar value. A value given as a limit tells only on which side of the number the result lay.

One assay has as its target Mu-type opioid receptor (Homo sapiens, UniProt P35372). The assay is described as follows: Radioligand Dose-Displacement Binding Assay. The following applies: pH 7.4; 50 °C. As to the method:
mu-Opioid Receptor Binding Assay Procedures: Radioligand dose-displacement binding assays for mu-opioid receptors used 0.3 nM [3H]-diprenorphine (Perkin Elmer, Shelton, Conn.), with […]/well in a final volume of 500 ul binding buffer (10 mM MgCl2, 1 mM EDTA, 5% DMSO, 50 mM HEPES, pH 7.4). Reactions were carried out in the absence or presence of increasing concentrations of unlabeled naloxone. All reactions were conducted in 96-deep well polypropylene plates for 2 hours at room temperature. Binding reactions were terminated by rapid filtration onto 96-well Unifilter GF/C filter plates (Perkin Elmer, Shelton, Conn.), presoaked in 0.5% polyethylenimine using a 96-well tissue harvester (Perkin Elmer, Shelton, Conn.) followed by performing three filtration washes with 500 ul of ice-cold binding buffer. Filter plates were subsequently dried at 50 C. for 2-3 hours. BetaScint scintillation cocktail (Perkin Elmer, Shelton, Conn.) was added (50 ul/well).

Assay [1] concerns the target Kappa-type opioid receptor (Homo sapiens, UniProt P41145). The assay is described as follows: Radioligand Dose-Displacement Binding Assay. The following applies: pH 7.4; 25 °C. As to the method:
Radioligand dose displacement assays used 0.4 nM [3H]-U69,593 (GE Healthcare, Piscataway, N.J.; 40 Ci/mmole) with 15 ug membrane protein (recombinant kippa opioid receptor expressed in HEK 293 cells; in-house prep) in a final volume of 200 ul binding buffer (5% DMSO, 50 mM Trizma base, pH 7.4). Non-specific binding was determined in the presence of 10 uM unlabeled naloxone or U69,593. All reactions were performed in 96-well polypropylene plates for 1 hour at a temperature of about 25 C. Binding reactions were terminated by rapid filtration onto 96-well Unifilter GF/C filter plates (Perkin Elmer, Shelton, Conn.) presoaked in 0.5% polyethylenimine (Sigma). Harvesting was performed using a 96-well tissue harvester (Perkin Elmer, Shelton, Conn.) followed by five filtration washes with 200 ul ice-cold binding buffer. Filter plates were subsequently dried at 50 C. for 1-2 hours. Fifty ul/well scintillation cocktail (Perkin Elmer, Shelton, Conn.) was added.

Kappa-type opioid receptor, sequence (P41145 whole entry): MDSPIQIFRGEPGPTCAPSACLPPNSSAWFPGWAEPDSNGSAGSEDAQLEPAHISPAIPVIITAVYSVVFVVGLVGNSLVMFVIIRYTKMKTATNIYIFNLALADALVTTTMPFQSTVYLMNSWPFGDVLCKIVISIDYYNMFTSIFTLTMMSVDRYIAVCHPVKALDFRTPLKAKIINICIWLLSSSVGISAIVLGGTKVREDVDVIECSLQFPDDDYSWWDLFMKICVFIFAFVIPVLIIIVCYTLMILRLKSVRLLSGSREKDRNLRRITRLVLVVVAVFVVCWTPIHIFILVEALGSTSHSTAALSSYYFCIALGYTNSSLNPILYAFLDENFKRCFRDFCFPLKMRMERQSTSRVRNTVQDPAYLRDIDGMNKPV
Mu-type opioid receptor, sequence (P35372 whole entry): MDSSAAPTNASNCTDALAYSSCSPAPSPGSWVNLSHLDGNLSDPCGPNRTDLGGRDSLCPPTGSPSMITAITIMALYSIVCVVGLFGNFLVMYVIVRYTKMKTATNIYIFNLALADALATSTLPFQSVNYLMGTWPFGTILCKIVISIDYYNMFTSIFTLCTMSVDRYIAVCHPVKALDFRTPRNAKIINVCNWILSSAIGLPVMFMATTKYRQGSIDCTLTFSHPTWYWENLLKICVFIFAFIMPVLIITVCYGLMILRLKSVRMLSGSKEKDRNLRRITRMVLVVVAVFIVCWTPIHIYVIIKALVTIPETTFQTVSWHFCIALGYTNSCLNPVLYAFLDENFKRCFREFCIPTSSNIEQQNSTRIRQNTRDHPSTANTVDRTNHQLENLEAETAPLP

The term pKi denotes the Ki on a negative log10 scale, so that one unit is a factor of ten. Read a high pKi as a small Ki. For `COc1ccc2c(c1)[C@]13CCN(C)[C@H](C2)[C@]1(O)CC[C@@]1(C3)NC(=O)NC1=O` [US8987287, 9], the pKi at Mu-type opioid receptor is 5.41; in assay [1] it was less than 4.70.
